Assay results from a compilation of properties of binary mixtures (doi:10.1016/j.molliq.2017.03.036).

Test: xn = mol fraction of the nth substance listed
Settings: 101 kPa

CN(CCO)CCO + CC(=O)[O-].CC[n+]1ccn(C)c1
x2 = 0
Settings	electrical conductivity [S/m]	viscosity [mPa·s]
288.15 K	0.0002	137.6
293.15 K	0.0003	101.2
298.15 K	0.0004	74.8
303.15 K	0.0005	57.2
308.15 K	0.0007	43
313.15 K	0.0009	34.1
318.15 K	0.0011	26.1
323.15 K	0.0014	21.6
333.15 K	0.0024	14.19
348.15 K	0.0046	8.13
353.15 K	0.0056	7.09

CC(=O)[O-].CC[n+]1ccn(C)c1 + CN(CCO)CCO
Settings	electrical conductivity [S/m]	viscosity [mPa·s]
288.15 K, x1 = 0.1002	0.01	144.1
288.15 K, x1 = 0.2997	0.048	155.8
288.15 K, x1 = 0.4001	0.059	163
288.15 K, x1 = 0.5998	0.075	193
288.15 K, x1 = 0.7003	0.087	203
288.15 K, x1 = 0.7998	0.103	217
288.15 K, x1 = 0.8999	0.124	236
288.15 K, x1 = 1	0.151	288
293.15 K, x1 = 0.1002	0.014	107.2
293.15 K, x1 = 0.2002	0.044	112.8
293.15 K, x1 = 0.2997	0.059	118.3
293.15 K, x1 = 0.4995	0.085	128.7
293.15 K, x1 = 0.5998	0.099	140.6
293.15 K, x1 = 0.7003	0.116	147.3
293.15 K, x1 = 0.7998	0.138	154.8
293.15 K, x1 = 0.8999	0.169	170
293.15 K, x1 = 1	0.201	197
298.15 K, x1 = 0.1002	0.019	80.3
298.15 K, x1 = 0.2002	0.054	85.1
298.15 K, x1 = 0.2997	0.073	88.7
298.15 K, x1 = 0.4001	0.089	93.2
298.15 K, x1 = 0.5998	0.13	106.5
298.15 K, x1 = 0.7003	0.152	110.8
298.15 K, x1 = 0.7998	0.184	114.1
298.15 K, x1 = 0.8999	0.227	127.2
298.15 K, x1 = 1	0.278	140
303.15 K, x1 = 0.1002	0.025	60.8
303.15 K, x1 = 0.2997	0.091	68.6
303.15 K, x1 = 0.4001	0.115	71.9
303.15 K, x1 = 0.4995	0.148	75.7
303.15 K, x1 = 0.7003	0.204	83.8
303.15 K, x1 = 0.7998	0.242	86.6
303.15 K, x1 = 0.8999	0.295	95.8
308.15 K, x1 = 0.1002	0.032	47.2
308.15 K, x1 = 0.2002	0.079	50.7
308.15 K, x1 = 0.2997	0.11	53.3
308.15 K, x1 = 0.4001	0.143	56.1
308.15 K, x1 = 0.4995	0.185	59.9
308.15 K, x1 = 0.5998	0.217	64.3
308.15 K, x1 = 0.7003	0.271	65.4
308.15 K, x1 = 0.7998	0.315	66.8
308.15 K, x1 = 1	0.461	78.3
313.15 K, x1 = 0.1002	0.04	37.2
313.15 K, x1 = 0.2002	0.093	40.3
313.15 K, x1 = 0.2997	0.134	42.9
313.15 K, x1 = 0.4001	0.175	45
313.15 K, x1 = 0.5998	0.273	51.7
313.15 K, x1 = 0.8999	0.486	58.1
313.15 K, x1 = 1	0.585	60.4
318.15 K, x1 = 0.2002	0.112	32
318.15 K, x1 = 0.2997	0.163	34.3
318.15 K, x1 = 0.4001	0.215	36.4
318.15 K, x1 = 0.4995	0.28	39.7
318.15 K, x1 = 0.5998	0.342	41.3
318.15 K, x1 = 0.7998	0.505	43.7
323.15 K, x1 = 0.2002	0.132	26.1
323.15 K, x1 = 0.2997	0.194	27.3
323.15 K, x1 = 0.4001	0.259	29.8
323.15 K, x1 = 0.4995	0.344	32.7
323.15 K, x1 = 0.5998	0.423	33.9
323.15 K, x1 = 0.7003	0.519	35.1
323.15 K, x1 = 0.7998	0.624	35.9
323.15 K, x1 = 0.8999	0.736	38.3
328.15 K, x1 = 0.2002	0.157	21.4
328.15 K, x1 = 0.2997	0.23	22.8
328.15 K, x1 = 0.4001	0.311	25
328.15 K, x1 = 0.7003	0.628	28.7
328.15 K, x1 = 0.7998	0.763	29.4
328.15 K, x1 = 0.8999	0.886	30.8
328.15 K, x1 = 1	1.06	31.2
333.15 K, x1 = 0.1002	0.09	15.76
333.15 K, x1 = 0.2002	0.184	17.9
333.15 K, x1 = 0.2997	0.273	19.4
333.15 K, x1 = 0.4001	0.371	20.6
333.15 K, x1 = 0.4995	0.495	22
333.15 K, x1 = 0.5998	0.628	23
333.15 K, x1 = 0.7003	0.755	23.8
333.15 K, x1 = 0.7998	0.909	24.5
338.15 K, x1 = 0.1002	0.108	13
338.15 K, x1 = 0.2002	0.215	14.46
338.15 K, x1 = 0.2997	0.322	16.9
338.15 K, x1 = 0.4001	0.437	17.3
338.15 K, x1 = 0.4995	0.583	18.7
338.15 K, x1 = 0.5998	0.742	19.3
338.15 K, x1 = 0.7003	0.896	19.9
338.15 K, x1 = 0.7998	1.08	20.5
338.15 K, x1 = 0.8999	1.25	21.1
338.15 K, x1 = 1	1.47	21.8
343.15 K, x1 = 0.1002	0.126	10.85
343.15 K, x1 = 0.2002	0.249	12.19
343.15 K, x1 = 0.2997	0.377	14.5
343.15 K, x1 = 0.4995	0.684	16.1
343.15 K, x1 = 0.5998	0.882	16.6
343.15 K, x1 = 0.7003	1.05	17.3
343.15 K, x1 = 0.7998	1.26	17.7
343.15 K, x1 = 0.8999	1.46	18.2
343.15 K, x1 = 1	1.71	18.8
348.15 K, x1 = 0.1002	0.148	9.17
348.15 K, x1 = 0.2002	0.287	10.36
348.15 K, x1 = 0.2997	0.441	12.49
348.15 K, x1 = 0.4001	0.605	12.74
348.15 K, x1 = 0.5998	1.04	14.22
348.15 K, x1 = 0.7003	1.22	14.67
348.15 K, x1 = 0.7998	1.46	15.22
348.15 K, x1 = 0.8999	1.68	15.69
348.15 K, x1 = 1	1.96	16.01
353.15 K, x1 = 0.1002	0.172	8.38
353.15 K, x1 = 0.2997	0.511	10.86
353.15 K, x1 = 0.4001	0.7	11.03
353.15 K, x1 = 0.4995	0.919	12.24
353.15 K, x1 = 0.7003	1.42	13.06
353.15 K, x1 = 0.8999	1.93	13.8
353.15 K, x1 = 1	2.22	14.07
